Test results: ChEMBL document CHEMBL1136284, “An aminopyridazine-based inhibitor of a pro-apoptotic protein kinase attenuates hypoxia-ischemia induced acute brain injury” (Bioorg Med Chem Lett, 2003)

Legend:
[1] = Inhibition of Death associated protein kinase
[2] = Displacement of ATP from Death associated protein kinase
Protein kinase C (PKC) = test: Inhibition of Protein kinase C; type: protein assay
[3] = biological target: cAMP-dependent protein kinase (PKA) (Homo sapiens, UniProt P22694+P17612+P22612); test: Inhibition of Protein kinase A; type: protein assay
Rattus norvegicus [4] = species: Rattus norvegicus; test: Brain hemisphere weight loss 6 hr after HI injury in rats
Rattus norvegicus [5] = test: Brain hemisphere weight loss after 5 mg/kg ip administration prior to HI injury in rats; conditions: route intraperitoneal
CaM kinase II = CaM kinase II (Homo sapiens, UniProt Q13557+Q13555+Q13554+Q9UQM7); test: Inhibition of Calcium/calmodulin-dependent protein kinase type II; type: protein assay

Row | Structure (SMILES) | IC50 [1] | Ki [1] | Ki [2] | IC50 (Protein kinase C (PKC)) | IC50 [3] | Weight loss (Rattus norvegicus [4]) | Weight loss (Rattus norvegicus [5]) | IC50 (CaM kinase II)
1 | N=c1cc2c(nn1CCCCCCCCCCC(=O)Nc1ccc(-c3ccccc3)nn1)-c1ccccc1CC2 | 13 µM | 15 µM | 20 µM | > 100 µM | > 100 µM | 21.6% | 17.3% | 
2 | Cc1cc(-c2ccccc2)nnc1NCCN1CCOCC1 [MINAPRINE] | > 100 µM |  |  | > 100 µM | > 100 µM |  |  | > 100 µM
3 | N=c1ccc(-c2ccccc2)nn1CCCCCCCCCCC(=O)Nc1ccc(-c2ccccc2)nn1 | 22 µM |  |  | 3 µM | > 100 µM |  |  | > 100 µM
4 | Cc1ccc(=N)n(CCCCCCCCCCC(=O)Nc2ccc(-c3ccccc3)nn2)n1 | > 100 µM |  |  | 31 µM | > 100 µM |  |  | > 100 µM
